Results: patent US11278525B1, “Further molecules, compositions and methods for modulation of SIRT6” (SirTLab Corporation, priority 2017, dated 2022)

Key:
SIRT6 [1] = molecular target: T1, SIRT6 (Homo sapiens, UniProt Q8N6T7); experiment: Secondary validation assays: HPLC deacylation, fluorometric deacetylation, in vitro histone deacetylation; assay type: biochemical; settings: values only in FIGS. 1-3
Protocol: The activating effect of three compounds (ChemDiv ID E677-1326, E677-0945 and D715-0284) for SIRT6 was validated by conducting the following secondary assays. As previously described, D715-0284 is a stereoisomer of molecule 768382-41-8.
1. HPLC deacylation assay. SIRT6 was incubated with compounds and myristoyl-lysine peptide (corresponding to TNF-alpha sequence) at 37° C. The deacylation reactions were analyzed by reversed phase high-performance liquid chromatography on Kinetex C18 column by monitoring the formation of the deacylated product at 214 nm. […] Equally diluted DMSO served as control.
2. Fluorometric deacetylation assay. SIRT6 was incubated with compounds and fluorophore-labelled acetyl-lysine peptide (corresponding to histone H3 sequence) at 37° C. […] Results are expressed as a percentage of DMSO—treated control.
3. In vitro histone deacetylation assay. Chromatin was purified from HEK293T cells by two steps of lysis (with Nonidet P-40 lysis buffer). SIRT6 was incubated with chromatin proteins and the reaction mixture is then used for Western blot analysis. […] SIRT6 (0.5 μM) was incubated with chromatin fractions isolated from HEK293T cells in the presence of 10 micromolar NAD+ and compound D715-0284 or DMSO (control) at 37° C.

SIRT6 [2] = molecular target: T1, SIRT6; experiment: SIRT6 enzymatic activity assay with fluorophore (AMC)-labeled Lysin-myristoylated histone H3 peptide (de-myristoylation, trypsin release); assay type: biochemical; design: six-histidine tag; made in house; host or cells: Escherichia coli BL21; settings: for % activity 20 uM: compound 20 uM; for % activity 20 uM / % activity Max. conc. 100 uM: percentage of signal increase relative to control wells, Tables 1-2; for % activity Max. conc. 100 uM: compound 100 uM; for % Activity: amount tested 20 uM, Example 5, Table 9
Protocol: Human recombinant SIRT6 (sequence identifier: CAG33481.1; GI:4814651) was expressed in large scale in Escherichia coli strain BL21 as a six-histidine-tagged protein, after transformation of the expression plasmid pET28-SIRT6. The SIRT6 enzyme was purified from the bacteria culture broth in a two-step strategy. The first purification step was carried out by cation exchange chromatography on a HiTrap CM-Sepharose column (GE Healthcare) using an FPLC system. The second purification step was performed by immobilized metal ion affinity chromatography (IMAC) using a cobalt affinity column (Clontech).
The enzymatic activity assay is carried out in 96 or 384-well microplates using the purified recombinant SIRT6 and a fluorophore-labeled peptide substrate: 7-amino-4-methylcoumarin (AMC) that is quenched through conjugation to the C-terminal end of a Lysin-myristoylated histone H3 peptide. The activity assay procedure requires two steps, both performed in the same microplate. In the first step, the substrate is incubated with the purified SIRT6 protein along with the co-substrate nicotinamide adenine dinucleotide (NAD+). Upon de-myristoylation, the liberated ε-amino group of the lysine becomes a trypsin substrate. Treatment with trypsin in the second step releases the fluorophore resulting in an increase in fluorescence. Fluorescence intensity is measured using a fluorescent plate reader (excitation and emission at 370 nm and 450 nm, respectively). The fluorescence signal is directly proportional to SIRT6 enzymatic activity.
In the primary screening, compounds from a library (ChemDiv Inc.) were tested at a single concentration of 20 micromolar for their potential to modulate SIRT6 enzymatic activity. The assay was carried out in 384-well black well plates and all liquid handling was done using a robotic liquid handler. Purified recombinant SIRT6 (1 micromolar) was pre-incubated with each compound (or DMSO in control wells) for 15 minutes at room temperature. The first stage of the assay was initiated by adding a ‘substrate solution’ containing the myristoylated histone H3 peptide and NAD+(for final concentrations of 25 micromolar and 20 micromolar, respectively). After one hour incubation at 37° C., a Trypsin solution (6 mg/mL) was added for 30 minutes at room temperature. Fluorescence intensity was measured using a fluorescent plate reader (Tecan) with excitation at 370 nm and emission at 450 nm. The effect of each tested compound was evaluated by the change in the fluorescence intensity compared to control wells. […] To validate the primary screening results, each of the primary “hits” was re-tested, first at concentration of 20 micromolar in duplicates and later at a serial dilution ranging from 100 to 0.2 micromolar in triplicates.
Results of Assay—The results of the assay are given below in Tables 1-3.
Additional molecules were tested according to the methods and materials of Example 1. The amount tested was 20 uM for each molecule.

T1 sequence (Q8N6T7 whole entry): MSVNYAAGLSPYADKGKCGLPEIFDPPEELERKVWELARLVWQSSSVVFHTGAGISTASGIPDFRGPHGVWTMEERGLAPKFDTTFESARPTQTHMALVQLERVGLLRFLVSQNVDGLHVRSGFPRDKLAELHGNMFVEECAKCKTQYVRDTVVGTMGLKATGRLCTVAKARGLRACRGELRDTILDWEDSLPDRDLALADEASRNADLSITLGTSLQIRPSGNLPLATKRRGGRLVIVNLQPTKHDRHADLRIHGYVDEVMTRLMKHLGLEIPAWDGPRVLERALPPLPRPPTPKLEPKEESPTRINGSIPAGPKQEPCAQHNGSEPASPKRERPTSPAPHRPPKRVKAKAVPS

Structure (SMILES) | % activity Max. conc. 100 uM (SIRT6 [2]) | % Activity (SIRT6 [2]) | other results
CN(C)CCCN(C(=O)CCOc1ccccc1)c1nc2c(F)cccc2s1 [E677-1326] | 252% | – | activating effect for SIRT6 in secondary assays (in words) (SIRT6 [1]): validated; % activity 20 uM (SIRT6 [2]): 287%
Cc1cccc2sc(N(CCCN(C)C)C(=O)CCOc3ccccc3)nc12 [E677-0945] | 255% | – | activating effect for SIRT6 in secondary assays (in words) (SIRT6 [1]): validated; % activity 20 uM (SIRT6 [2]): 263%
Cc1ccccc1C(=O)Oc1ccc2c3c(c(=O)oc2c1)CCC3 [2712-4063] | – | 61% | –
CN(C)CCN(C(=O)CCS(=O)(=O)c1ccccc1)c1nc2c(Cl)cccc2s1 [E676-1524] | – | 80% | –
Cc1ccnc(NC(c2ccc(Cl)cc2Cl)c2ccc3cccnc3c2O)c1 (stereo not shown) [4896-3248] | 28% | – | % activity 20 uM (SIRT6 [2]): 30%
C=C(Cn1c(C)cc(C)c(C2=NC(c3ccccc3)=NC2)c1=O)NC1CCCCC1 [G744-0080] | 221% | – | % activity 20 uM (SIRT6 [2]): 53%
O=C(Oc1ccc2c3c(c(=O)oc2c1)CCC3)c1cccs1 [2712-4058] | – | 455% | –
Cc1ccc(NC(=O)c2nnc(-c3ccc(NC(=O)c4cccs4)cc3)s2)cc1 [F498-0132] | 16% | – | –
COc1ccc(CN2CCN(C(=O)c3ccc(N4CCc5ccccc54)s3)CC2)c(OC)c1OC [G122-1838] | – | 45% | –
CC[C@H]1O[C@@H](Cc2ccc3c(c2C)CC(=O)C(C)=C3C)[C@H](C)[C@@H](O)[C@H]1C [D715-0292] | 56% | – | –
C=C(Oc1ccc2cnccc2c1)c1sc2ccccc2c1N [G891-0058] | 324% | – | % activity 20 uM (SIRT6 [2]): 154%
COC(=O)CSc1ccc(C#N)c(SCC(=O)OC)c1 [8012-3471] | – | 23% | –
Cc1nc(-c2cccc(F)c2)c(N)c(N(C)C2CCN(C)CC2)n1 [V030-4128] | 210% | – | –
CCC(=O)Oc1ccc2c(C)c(Cc3ccccc3)c(=O)oc2c1C [2259-4063] | – | 273% | –

The next lines start with results.

% activity Max. conc. 100 uM (SIRT6 [2]) | % Activity (SIRT6 [2]) | Structure (SMILES) | other results
50% | – | CCCNC(=O)c1ccc(-c2ccc(N3CCCCC3)nc2)cc1 [M715-0111] | % activity 20 uM (SIRT6 [2]): 63%
113% | – | C=C1Cc2cc(C)cc(CC(=O)[C@@H](NS(=C)(=C)c3ccc(C)cc3)[C@H](C)CC)c2C2=C1CCC2 [Y040-3625] | –
110% | – | CCC(=O)Nc1ccc(-c2cc(C(=O)NCCCN3CCCCC3C)c3ccccc3n2)cc1 (stereo not shown) [L036-0163] | –
75% | – | O=C(c1ccc(-c2ccc(N3CCCCC3)nc2)cc1)N1CCCC1 [M715-0156] | –
142% | – | O=C(Nc1ccc2nnc(C3CCC3)n2c1)C1CC1 [M723-1459] | –
– | 95% | COc1cc(C(=O)Oc2ccc3c4c(c(=O)oc3c2)CCCC4)cc(OC)c1OC [Y040-2478] | –
– | 50% | CCOc1ccccc1C(=O)Oc1ccc2c(C)c(CC(=O)OC)c(=O)oc2c1C [Y040-3573] | –
– | 80% | CN(C)C(=O)C1CCN(c2nc3ccc(-c4cncnc4)nc3s2)CC1 [T387-0950] | –
– | 40% | O=C(C1CCN(c2nc3ccc(-c4cncnc4)nc3s2)CC1)N1CCCC1 [T387-0947] | –
